# Experiments:
# [1] = tested on: windgrass; assay: Test Example 4: herbicidal effect by soil treatment (Table 19, symbol L); type: in vivo, windgrass (Apera spica-venti); settings: amount of applied herbicide 320 g/ha
# Outline: (§1)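 Seeds were sown in sterilized diluvial soil and covered with about 1.5 cm of soil. An emulsion formulation diluted with water to a predetermined herbicide amount was sprayed evenly onto the soil surface. Plants grew in a greenhouse at 25° C. to 30° C., and the effect was scored three weeks after application using criteria from an earlier test.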
# [2] = tested on: lambsquarters; assay: Test Example 4: herbicidal effect by soil treatment (Table 19, symbol O); type: in vivo, lambsquarters (Chenopodium album); settings: amount of applied herbicide 320 g/ha
# Outline: as §1
# [3] = tested on: Chinese sprangletop; assay: Test Example 3: herbicidal effect by foliage application, Wagner pot (Table 18, symbol D); type: in vivo, chinese sprangletop (Leptochloa chinensis); settings: for herbicidal effect on Chinese sprangletop (D): 320 g/ha
# Outline: (§2)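 Plants were sown in alluvial soil held under 0.1–0.5 cm standing water and grown 14 days in a greenhouse at 25–30 °C. An emulsifiable formulation, water-diluted to the set dose, was then sprayed onto the foliage, and effects were scored three weeks later using previously defined criteria.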
# [4] = tested on: persian speedwell; assay: Test Example 5: herbicidal effect by foliage application, plastic box (Table 20, symbol R); type: in vivo, Persian speedwell (Veronica persica); settings: 320 g/ha; for R: persian speedwell, herbicidal effect grade: foliage application, three weeks after application
# Outline: (§3)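 Plants sown in sterilized diluvial soil and grown 14 days in a greenhouse at 25° C to 30° C, then sprayed on the foliage with the compound's emulsion diluted in water to a predetermined herbicide amount. Injury to weeds and crops scored three weeks after application on a visual rating scale.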
# [5] = tested on: chickweed; assay: Test Example 5: herbicidal effect by foliage application, plastic box (Table 20, symbol P); type: in vivo, common chickweed (Stellaria media); settings: 320 g/ha; for P: chickweed, herbicidal effect grade: foliage application, three weeks after application
# Outline: as §3
# [6] = tested on: velvetleaf; assay: Test Example 4: herbicidal effect by soil treatment (Table 19, symbol M); type: in vivo, velvetleaf (Abutilon theophrasti); settings: amount of applied herbicide 320 g/ha
# Outline: as §1
# [7] = tested on: windgrass; assay: Test Example 5: herbicidal effect by foliage application, plastic box (Table 20, symbol L); type: in vivo, windgrass (Apera spica-venti); settings: 320 g/ha; for L: windgrass, herbicidal effect grade: foliage application, three weeks after application
# Outline: as §3
# [8] = tested on: barnyard grass; assay: Test Example 5: herbicidal effect by foliage application, plastic box (Table 20, symbol H); type: in vivo, barnyard grass (Echinochloa crus-galli); settings: 320 g/ha; for H: barnyard grass, herbicidal effect grade: foliage application, three weeks after application
# Outline: as §3
# [9] = tested on: green foxtail; assay: Test Example 5: herbicidal effect by foliage application, plastic box (Table 20, symbol G); type: in vivo, green foxtail (Setaria viridis); settings: 320 g/ha; for G: green foxtail, herbicidal effect grade: foliage application, three weeks after application
# Outline: as §3
# [10] = tested on: oval-leafed pondweed; assay: Test Example 2: herbicidal activity, application during weed generation under submerged conditions (Table 17, symbol C); type: in vivo, oval-leafed pondweed (Monochoria vaginalis); settings: AAH 320 g/ha; application during weed generation, submerged conditions
# Outline: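 Effect on each weed is rated three weeks post-treatment, using the same scoring criteria as the preceding test. Plants grow from mixed-sown seed in flooded alluvial soil (4 cm water) at 25° C. to 30° C., and are treated at one to two leaves with diluted emulsion dropped onto the water.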
# [11] = tested on: southern crabgrass; assay: Test Example 5: herbicidal effect by foliage application, plastic box (Table 20, symbol F); type: in vivo, southern crabgrass (Digitaria ciliaris); settings: 320 g/ha; for F: southern crabgrass, herbicidal effect grade: foliage application, three weeks after application
# Outline: as §3
# [12] = tested on: southern crabgrass; assay: Test Example 4: herbicidal effect by soil treatment (Table 19, symbol F); type: in vivo, southern crabgrass (Digitaria ciliaris); settings: amount of applied herbicide 320 g/ha
# Outline: as §1
# [13] = tested on: rice flat sedge; assay: Test Example 3: herbicidal effect by foliage application, Wagner pot (Table 18, symbol E); type: in vivo, rice flat sedge (Cyperus iria); settings: for herbicidal effect on rice flat sedge (E): 320 g/ha
# Outline: as §2
# [14] = tested on: redroot pigweed; assay: Test Example 4: herbicidal effect by soil treatment (Table 19, symbol N); type: in vivo, redroot pigweed (Amaranthus retroflexus); settings: amount of applied herbicide 320 g/ha
# Outline: as §1
# [15] = tested on: oval-leafed pondweed; assay: Test Example 1: herbicidal activity, application before weed generation under submerged conditions (Table 16, symbol C); type: in vivo, oval-leafed pondweed (Monochoria vaginalis); settings: amount of applied herbicide 320 g/ha
# Outline: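 Alluvial soil was flooded to 4 cm depth, weed seeds were sown mixed and 2.5-leaf rice seedlings were transplanted. On sowing day, the compound's emulsion, diluted in water to a set dose, was applied to the water surface. Plants grew at 25–30 °C and were scored 0–5 after three weeks.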
# [16] = tested on: lambsquarters; assay: Test Example 5: herbicidal effect by foliage application, plastic box (Table 20, symbol O); type: in vivo, lambsquarters (Chenopodium album); settings: 320 g/ha; for O: lambsquarters, herbicidal effect grade: foliage application, three weeks after application
# Outline: as §3
# [17] = amount of applied herbicide 320 g/ha
# [18] = foliage application after 14-day growth, evaluated three weeks after application
Structure (SMILES),"L: windgrass, herbicidal effect grade [1]","O: lambsquarters, herbicidal effect grade [2]",herbicidal effect on Chinese sprangletop (D) [3],"R: persian speedwell, herbicidal effect grade [4]","P: chickweed, herbicidal effect grade [5]","M: velvetleaf, herbicidal effect grade [6]","L: windgrass, herbicidal effect grade [7]","H: barnyard grass, herbicidal effect grade [8]","G: green foxtail, herbicidal effect grade [9]","herbicidal effect rating, C: oval-leafed pondweed [10]","F: southern crabgrass, herbicidal effect grade [11]","F: southern crabgrass, herbicidal effect grade [12]",herbicidal effect on rice flat sedge (E) [13],"N: redroot pigweed, herbicidal effect grade [14]","Herbicidal effect, C: oval-leafed pondweed [15]","O: lambsquarters, herbicidal effect grade [16]",other results
COc1ccccc1-c1sc2cc(OCC(C)C)ccc2c1-c1c(O)c(C)nn(C)c1=O [3-107],0 (Herbicidal rate of 5% or less (almost no effect)),5 (Herbicidal rate of 90% or more (almost completely withered)),3 (Herbicidal rate of 40% or more and less than 70%),5 (Herbicidal rate of 90% or more (almost completely withered)),5 (Herbicidal rate of 90% or more (almost completely withered)),1 (Herbicidal rate of 5% or more and less than 20%),5 (Herbicidal rate of 90% or more (almost completely withered)),3 (Herbicidal rate of 40% or more and less than 70%),5 (Herbicidal rate of 90% or more (almost completely withered)),5 (Herbicidal rate of 90% or more (almost completely withered)),5 (Herbicidal rate of 90% or more (almost completely withered)),3 (Herbicidal rate of 40% or more and less than 70%),4 (Herbicidal rate of 70% or more and less than 90%),5 (Herbicidal rate of 90% or more (almost completely withered)),5 (Herbicidal rate of 90% or more (almost completely withered)),5 (Herbicidal rate of 90% or more (almost completely withered)),
CCOC(=O)Oc1c(C)nn(C)c(=O)c1-c1c(-c2ccccc2OC)sc2cc(F)ccc12 [3-024],3 (Herbicidal rate of 40% or more and less than 70%),4 (Herbicidal rate of 70% or more and less than 90%),,1 (Herbicidal rate of 5% or more and less than 20%),5 (Herbicidal rate of 90% or more (almost completely withered)),3 (Herbicidal rate of 40% or more and less than 70%),5 (Herbicidal rate of 90% or more (almost completely withered)),5 (Herbicidal rate of 90% or more (almost completely withered)),5 (Herbicidal rate of 90% or more (almost completely withered)),3 (Herbicidal rate of 40% or more and less than 70%),1 (Herbicidal rate of 5% or more and less than 20%),3 (Herbicidal rate of 40% or more and less than 70%),,5 (Herbicidal rate of 90% or more (almost completely withered)),0 (Herbicidal rate of 5% or less (almost no effect)),4 (Herbicidal rate of 70% or more and less than 90%),"herbicidal effect on D: Chinese sprangletop [3, 17]: 3 (Herbicidal rate of 40% or more and less than 70%); herbicidal effect on E: rice flat sedge [13, 17]: 5 (Herbicidal rate of 90% or more (almost completely withered))"
CCCC(=O)Oc1c(C)nn(C)c(=O)c1-c1c(-c2ccc(C(F)(F)F)cc2)sc2c(F)cccc12 [4-045],,,3 (Herbicidal rate of 40% or more and less than 70%),,,,,,,0 (Herbicidal rate of 5% or less (almost no effect)),,,5 (Herbicidal rate of 90% or more (almost completely withered)),,0 (Herbicidal rate of 5% or less (almost no effect)),,"Herbicidal effect by soil treatment, L: windgrass [1]: 3 (Herbicidal rate of 40% or more and less than 70%); Herbicidal effect by soil treatment, O: lambsquarters [2]: 0 (Herbicidal rate of 5% or less (almost no effect)); herbicidal effect on R: persian speedwell (evaluation grade 0-5) [4, 18]: 5 (Herbicidal rate of 90% or more (almost completely withered)); herbicidal effect on P: chickweed (evaluation grade 0-5) [5, 18]: 5 (Herbicidal rate of 90% or more (almost completely withered)); Herbicidal effect by soil treatment, M: velvetleaf [6]: 0 (Herbicidal rate of 5% or less (almost no effect)); herbicidal effect on L: windgrass (evaluation grade 0-5) [7, 18]: 4 (Herbicidal rate of 70% or more and less than 90%); herbicidal effect on H: barnyard grass (evaluation grade 0-5) [8, 18]: 2 (Herbicidal rate of 20% or more and less than 40%); herbicidal effect on G: green foxtail (evaluation grade 0-5) [9, 18]: 0 (Herbicidal rate of 5% or less (almost no effect)); herbicidal effect on F: southern crabgrass (evaluation grade 0-5) [11, 18]: 0 (Herbicidal rate of 5% or less (almost no effect)); Herbicidal effect by soil treatment, F: southern crabgrass [12]: 0 (Herbicidal rate of 5% or less (almost no effect)); Herbicidal effect by soil treatment, N: redroot pigweed [14]: 4 (Herbicidal rate of 70% or more and less than 90%); herbicidal effect on O: lambsquarters (evaluation grade 0-5) [16, 18]: 3 (Herbicidal rate of 40% or more and less than 70%)"

# Source: patent publication US20230085307A1, “PYRIDAZINONE COMPOUND AND HERBICIDE” (NISSAN CHEMICAL CORPORATION, priority 2019, published 2023)
